Measurements taken from patent publication US11596692B1 (Incyte Corporation, priority 2018, dated 2023).
Like-named read-outs stand apart in the source and are kept apart here.

Legend:
PD-L1 [1] = molecular target: T1, PD-L1 (Homo sapiens (Human), UniProt Q9NZQ7); assay: Indirect whole blood PD-L1 internalization assay; assay type: cell-based; settings: interferon γ, 18 hours, CD14+ gated
Procedure: To determine PD-L1 internalization in human whole blood, normal human blood (Biological Specialty Corp, Colmar. Pa.) was incubated in the presence or absence of a concentration range of test compounds and 1 ng/ml human interferon γ (R&D Systems Inc. Minn. Minn.) in a 96 well round bottom plate (Corning, Corning, N.Y.) for 18 hours at 37° C. Blood was then transferred into 96 well “2 ml Assay Block” (Corning, Corning N.Y.) and stained with PD-L1 (MIH1, eBioscience; or BD Biosciences San Jose, Calif.), CD14 (Life Technologies, Carlsbad, Calif.) for 30 minutes in the dark at room temperature. Whole Blood/red cells were lysed/fixed (lysis buffer BD Biosciences) for 5 minutes at 37° C. in dark and then centrifuged at 1600 RPM for 5 minutes and cells were transferred into 96 well round bottom plates (Corning). Cells were gated on CD14+ (BD Biosciences) and PD-L1 expression determined by mean fluorescence intensity (MFI) (BD LSRFortessa™ X-20). IC50 determination was performed by fitting the curve of compound percent inhibition versus the log of the compound concentration using the GraphPad Prism 7.0 software.

[2] = system: IRF3 activation in PD-L1 low HEK293T STING reporter cell line; assay: IRF3 activation in HEK293T STING reporter cells, low PD-L1; assay type: cell-based, human; settings: 20 hours, read-out: IRF Activation EC50 (nM), Low PD-L1
Procedure: (§1) HEK293T STING reporter cell line was purchased from Invivogen and expressed low level of PD-L1. This cell line was then engineered at Incyte Research Institute to overexpress human PD-L1. Both PD-L1 high and PD-L1 low HEK293T cell lines were plated at 100,000 cells/100 μL/well in 10% fetal calf serum-containing DMEM culture medium in a 96-well flat bottom plate. Serial dilutions of PD-L1 small molecule-conjugated STING agonists were then added to the corresponding wells, and incubated for 20 hours at 37° C. In a competition study setting, 1 μM of a PD-L1 small molecule was added in the corresponding wells to compete with the binding of PD-L1 small molecule-conjugated STING agonists. At the end of the incubation, the culture supernatants were carefully removed from each well, and the amount of IRF3 activation was determined by adding Quanti-Blue substrate in accordance with the manufacturer's protocol.
(§2) 293T-Dual hSTING-R232 (ISG/KI-IFNb) cells that were generated from 293T-Dual Null (ISG/KI-IFNb) cells by stable transfection of the R232 isoform of human STING were purchased from Invivogen (Invivogen #293d-r232).
(§3) This cell line expresses an ISRE-inducible SEAP (secreted embryonic alkaline phosphatase) reporter construct, which monitors the activation of interferon regulatory factor (IRF) and its binding to ISRE (IFN-stimulated response elements). These reporter cells express low level of PD-L1. Human PD-L1 was then overexpressed in these cells through stable transfection.
(§4) These 293T-Dual hSTING-R232 reporter cells as well as293T-Dual hSTING-R232 reporter cells overexpressing huPD-L1 were treated with various concentrations of STING compounds for 20 hours. After 20 hours, interferon regulatory factor (IRF) activity was assessed by measuring SEAP levels in the supernatant using QUNTI-Blue. EC50 values were generated by curve fit in Prism software.

[3] = system: IRF3 activation in PD-L1 high HEK293T STING reporter cell line; assay: IRF3 activation in HEK293T STING reporter cells, high PD-L1; assay type: cell-based, human; settings: for EC50: 20 hours; for Potency shift: with compound P27 (1 μM) versus no competition
Procedure: as §1, §2, §3, §4

PD-L1 [4] = molecular target: T1, PD-L1; assay: PD-L1 surface levels on HEK293T STING reporter cells, high PD-L1; assay type: cell-based
Procedure: To determine PD-L1 expression on HEK cells after treatment of PD-L1-small molecule conjugated STING agonists, cells were harvested at 20 hours post-treatment. Single cell suspensions were then stained with phycoerythrin-conjugated anti-PD-L1 antibody (BD Bioscience), and the PD-L1 expression were then analyzed by flow cytometry. Mean fluorescence intensity was used as the relative level of surface PD-L1 expression on cells (FIG. 1 and Table 6).
Also, cells were stained with PE-conjugated anti-human PD-L1 antibody to determine surface PD-L1 expression. Cell acquisition was performed on BD LSRFortessa X-20 (BD Biosciences). Data was analyzed using FlowJo software. IC50 values were calculated using Prism Software.

IRF3 = IRF3 activation assay in THP-1 Dual cells; assay type: cell-based; settings: Homo sapiens, read-out: THP1 IRF3 EC50
Method in brief: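 THP-1 Dual cells (100,000/well) were treated with serially diluted compound for 24 h at 37° C, 5% CO2. IRF3 reporter activity in supernatant was read with QUANTI-Blue as absorbance at 620-655 nm after 2 h, with untreated cells as negative control. EC50 came from fitting percent control activity against log concentration.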

[5] = high PD-L1 cells, read-out: IRF Activation EC50 (nM), High PD-L1
[6] = no competition, read-out: IRF Activation EC50 (nM), No competition
[7] = read-out: IRF Activation EC50 (nM), With compound P27 (1 μM), competition with compound P27 1 μM

T1 sequence (Q9NZQ7 19-290): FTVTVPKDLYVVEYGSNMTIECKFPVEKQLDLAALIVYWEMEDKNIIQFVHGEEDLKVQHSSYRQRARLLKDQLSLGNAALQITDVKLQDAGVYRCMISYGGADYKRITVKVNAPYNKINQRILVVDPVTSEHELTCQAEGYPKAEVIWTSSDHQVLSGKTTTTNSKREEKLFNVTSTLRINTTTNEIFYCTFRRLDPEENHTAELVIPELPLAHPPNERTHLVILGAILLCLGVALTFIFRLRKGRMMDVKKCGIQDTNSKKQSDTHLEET

Cc1c(-c2nc3cc(CN4CC[C@H](C(=O)O)C4)cc(C#N)c3o2)cccc1-c1cccc(NC(=O)c2nc3c(n2C)CCN(C)C3)c1Cl [Example P11]
IC50 (PD-L1 [1]): < 100 nM

CCn1nc(C)cc1C(=O)Nc1nc2cc(C(N)=O)cc(OC)c2n1C/C=C/Cn1c(NC(=O)c2cc(C)nn2CC)nc2cc(C(N)=O)cc(OCCCNC(=O)[C@H](CC(=O)O)NC(=O)[C@H](CC(=O)O)NC(=O)[C@H](CC(=O)O)NC(=O)[C@H](CC(=O)O)NC(=O)CCCN3CCc4c(nc(C(=O)Nc5cccc(-c6cccc(NC(=O)c7nc8c(n7C)CCN(CCCC(=O)O)C8)c6Cl)c5Cl)n4C)C3)c21 [Example 12]
EC50 [2]: 50 to 200 nM
EC50 [3, 5]: < 50 nM

CCn1nc(C)cc1C(=O)Nc1nc2cc(C(N)=O)cc(OCCCNC(=O)[C@H](CC(=O)O)NC(=O)[C@H](CC(=O)O)NC(=O)[C@H](CCCNC(N)=O)NC(=O)[C@H](CC(=O)O)NC(=O)CCCN3CCc4c(nc(C(=O)Nc5cccc(-c6cccc(NC(=O)c7nc8c(n7C)CCN(CCCC(=O)O)C8)c6Cl)c5Cl)n4C)C3)c2n1C/C=C/Cn1c2nc(-c3cc(C)nn3CC)ncc2c2cc(C(N)=O)cc(OC)c21 [Example 21]
EC50 [2]: 50 to 200 nM
IC50 (PD-L1 [4]): < 50 nM
EC50 [3, 5]: < 50 nM

CCn1nc(C)cc1C(=O)Nc1nc2cc(C(N)=O)cc(OC)c2n1C/C=C/Cn1c(NC(=O)c2cc(C)nn2CC)nc2cc(C(N)=O)cc(OCCCNC(=O)CCNC(=O)OCc3ccc(NC(=O)[C@H](CCCNC(N)=O)NC(=O)[C@@H](NC(=O)CCCN4CCc5c(nc(C(=O)Nc6cccc(-c7cccc(NC(=O)c8nc9c(n8C)CCN(CCCC(=O)N[C@@H](CC(=O)O)C(=O)O)C9)c7Cl)c6Cl)n5C)C4)C(C)C)cc3)c21 [Example 3]
EC50 [2]: 200 to 1000 nM
EC50 [3, 5]: < 50 nM
EC50 [3, 6]: < 50 nM
EC50 [3, 7]: 200 to 1000 nM
Potency shift [3]: >20

CCn1nc(C)cc1C(=O)Nc1nc2cc(C(N)=O)cc(OC)c2n1C/C=C/Cn1c(NC(=O)c2cc(C)nn2CC)nc2cc(C(N)=O)cc(OCCCNC(=O)CCNC(=O)OCc3ccc(NC(=O)[C@H](CCCNC(N)=O)NC(=O)[C@@H](CC(=O)Cn4cc(CCNC(=O)[C@H](CC(=O)O)NC(=O)[C@H](CC(=O)O)NC(=O)[C@H](CCCNC(=N)N)NC(=O)[C@H](CC(=O)O)NC(=O)CCCN5CCc6c(nc(C(=O)Nc7cccc(-c8cccc(NC(=O)c9nc%10c(n9C)CCN(CCCC(=O)O)C%10)c8Cl)c7Cl)n6C)C5)nn4)C(C)C)cc3)c21 [Example 4]
EC50 [2]: 200 to 1000 nM
EC50 [3, 5]: < 50 nM
EC50 [3, 6]: < 50 nM
EC50 [3, 7]: 200 to 1000 nM
Potency shift [3]: >20

Cc1c(NC(=O)c2ccc(CNCCO)cn2)cccc1-c1cccc(NC(=O)c2ccc(CNCCO)cn2)c1Cl [Example P7]
IC50 (PD-L1 [1]): < 100 nM

CCn1nc(C)cc1C(=O)Nc1nc2cc(C(N)=O)cc(O)c2n1C/C=C/Cn1c2nc(-c3cc(C)nn3CC)ncc2c2cc(C(N)=O)cc(OCCCOC)c21 [Example S28, (E)-9-(4-(5-carbamoyl-2-(1-ethyl-3-methyl-1H-pyrazole-5-carboxamido)-7-hydroxy-1H-benzo[d]imidazol-1-yl)but-2-en-1-yl)-2-(1-ethyl-3-methyl-1H-pyrazol-5-yl)-8-(3-methoxypropoxy)-9H-pyrimido[4,5-b]indole-6-carboxamide]
EC50 (IRF3; THP-1, Table 4A): ≤ 100 nM
EC50 (IRF3; THP-1, Table 4B): < 200 nM
EC50 (IRF3; THP-1, Table 4C): ≤ 50 nM

CCn1nc(C)cc1C(=O)Nc1nc2cc(C(N)=O)c3ccoc3c2n1C/C=C/Cn1c2nc(-c3cc(C)nn3CC)ncc2c2cc(C(N)=O)cc(OCCCO)c21 [Example S69, (E)-1-(4-(6-carbamoyl-2-(1-ethyl-3-methyl-1H-pyrazol-5-yl)-8-(3-hydroxypropoxy)-9H-pyrimido[4,5-b]indol-9-yl)but-2-en-1-yl)-2-(1-ethyl-3-methyl-1H-pyrazole-5-carboxamido)-1H-benzofuro[6,7-d]imidazole-5-carboxamide]
EC50 (IRF3; THP-1, Table 4A): ≤ 100 nM

CCn1nc(C)cc1C(=O)Nc1nc2cc(C(N)=O)cc(OCCCO)c2n1C/C=C/Cn1c2nc(-c3cc(C)nn3CC)ncc2c2cc(C(N)=O)cc(OCCCN3CCOCC3)c21 [Example S20, (E)-9-(4-(5-carbamoyl-2-(1-ethyl-3-methyl-1H-pyrazole-5-carboxamido)-7-(3-hydroxypropoxy)-1H-benzo[d]imidazol-1-yl)but-2-en-1-yl)-2-(1-ethyl-3-methyl-1H-pyrazol-5-yl)-8-(3-morpholinopropoxy)-9H-pyrimido[4,5-b]indole-6-carboxamide]
EC50 (IRF3; THP-1, Table 4A): ≤ 100 nM
EC50 (IRF3; THP-1, Table 4B): < 200 nM
EC50 (IRF3; THP-1, Table 4C): ≤ 50 nM

CCn1nc(C)cc1C(=O)Nc1nc2cc(C(N)=O)cc(C)c2n1C/C=C/Cn1c2ccc(C(N)=O)cc2c2cc(C#N)c(-c3cc(C)nn3CC)nc21 [Example S25, (E)-9-(4-(5-carbamoyl-2-(1-ethyl-3-methyl-1H-pyrazole-5-carboxamido)-7-methyl-1H-benzo[d]imidazol-1-yl)but-2-en-1-yl)-3-cyano-2-(1-ethyl-3-methyl-1H-pyrazol-5-yl)-9H-pyrido[2,3-b]indole-6-carboxamide]
EC50 (IRF3; THP-1, Table 4A): 100 to 500 nM
EC50 (IRF3; THP-1, Table 4B): < 1000 nM
EC50 (IRF3; THP-1, Table 4C): 200 to 500 nM

CCn1nc(C)cc1C(=O)Nc1nc2cc(C(N)=O)c3ccoc3c2n1C/C=C/Cn1c2nc(-c3cc(C)nn3CC)ncc2c2cc(C(N)=O)cc(OCCCOC)c21 [Example S68, (E)-1-(4-(6-carbamoyl-2-(1-ethyl-3-methyl-1H-pyrazol-5-yl)-8-(3-methoxypropoxy)-9H-pyrimido[4,5-b]indol-9-yl)but-2-en-1-yl)-2-(1-ethyl-3-methyl-1H-pyrazole-5-carboxamido)-1H-benzofuro[6,7-d]imidazole-5-carboxamide]
EC50 (IRF3; THP-1, Table 4A): ≤ 100 nM

CCn1nc(C)cc1C(=O)Nc1nc2cc(C(N)=O)cc(OCCCNC(=O)OCCC(=O)O)c2n1C/C=C/Cn1c2nc(-c3cc(C)nn3CC)ncc2c2cc(C(N)=O)cc(OCCCOC)c21 [Example S44, (E)-3-(((3-((5-carbamoyl-1-(4-(6-carbamoyl-2-(1-ethyl-3-methyl-1H-pyrazol-5-yl)-8-(3-methoxypropoxy)-9H-pyrimido[4,5-b]indol-9-yl)but-2-en-1-yl)-2-(1-ethyl-3-methyl-1H-pyrazole-5-carboxamido)-1H-benzo[d]imidazol-7-yl)oxy)propyl)carbamoyl)oxy)propanoic acid]
EC50 (IRF3; THP-1, Table 4C): ≤ 50 nM

CCn1nc(C)cc1C(=O)Nc1nc2cc(C(N)=O)cc(OCCCC#N)c2n1C/C=C/Cn1c2nc(-c3cc(C)nn3CC)ncc2c2cc(C(N)=O)cc(OCCCOC)c21 [Example S34, (E)-9-(4-(5-carbamoyl-7-(3-cyanopropoxy)-2-(1-ethyl-3-methyl-1H-pyrazole-5-carboxamido)-1H-benzo[d]imidazol-1-yl)but-2-en-1-yl)-2-(1-ethyl-3-methyl-1H-pyrazol-5-yl)-8-(3-methoxypropoxy)-9H-pyrimido[4,5-b]indole-6-carboxamide]
EC50 (IRF3; THP-1, Table 4C): ≤ 50 nM
